US9139608B2 (priority 2010, dated 2015)
Marks after values point to notes of the source that are not given here.

What was measured:
[1] = Pharmacokinetic study: availability of test drug at site of action; assay type: in vivo; details: healthy rats, single oral dose 250 mg/kg, feces 0-24 h
Experimental: The blood samples were collected at 0, 0.25, 0.50, 1, 2, 3, 4, 5 and 6 hours after dosing. Plasma was obtained by centrifugation of blood at 7000 rpm for 15 min at 4° C. and kept at −20° C. until analysis was carried out. The animals were kept in the metabolic cages for collection of urine and feces.

TNBS induced IBD = assay: TNBS induced colitis in rats; assay type: in vivo, Male Wistar rats
Excerpt: In addition, increased body weight, decreased ulcer index and myeloperoxidase activity in colon is seen.
The trinitrobenzenesulfonic acid (TNBS) induced colitis is one of the standard animal models used for IBD. In this model, a single intracolonic administration of TNBS damages the colonic epithelium and induces prolonged chronic inflammation.
Procedure: In this study, Male Wistar rats (280-291 g) were fasted for 48 hrs, and put under anaesthesia. A 3 mm diameter cannula was inserted into the anus to the depth of 8 cm and 25 mg of TNBS dissolved in 0.25 ml of 30% ethanol solution was injected to each rat. The rats were positioned tail up for 1 minute. […] A healthy control group receiving only saline but no TNBS was maintained. On day 11, each group of rats were sacrificed by cervical dislocation and the colon was isolated for physical examination. Colon samples were preserved in 10% neutral formalin solution for histopathological evaluation.

ethanol induced ulcers = assay: Ethanol induced ulcers in rats, prophylactic; assay type: in vivo, Male Wistar rats; details: then Ethanol 8 ml/kg p.o., n = 6
Experimental: Consumption of alcohol is another major factor resulting in gastric lesions.
The mean ulcer area in this study was measured to be 174.4 mm^2±5.814 mm^2 in the control group indicating the ulcerogenic effect of ethanol.

[2] = tested on: H. pylori (ATCC 26695, strain MS-5); assay: H. Pylori infected rats with NSAID induced ulcers (RUT and PCR); assay type: in vivo, Helicobacter Pylori
hemorrhoids = assay: Prospective uncontrolled pilot study in patients with hemorrhoids, patient reported outcome; assay type: in vivo, Humans; details: for Bloody stool, Median Value of Patient Reported Outcome / Difficulty to sit or walk, Median Value of Patient Reported Outcome / Edema, Median Value of Patient Reported Outcome / Itching, Median Value of Patient Reported Outcome / Pain, Median Value of Patient Reported Outcome: hemorrhoids, n = 5, scale 0 - Absence to 5 - Severe
Experimental: A prospective uncontrolled pilot study to access the efficacy of the test drug in patients with hemorrhoids was conducted. […] The efficacy of the test drug was analyzed on the basis of patient reported outcome taken at the beginning and end of the study period. […] It was further observed that there was significant relief in pain and irritation associated with bowel movement by the end of the treatment period.

[3] = tested on: acetic acid induced colitis; assay: Acetic acid induced colitis in rats; assay type: in vivo, Male Wistar rats; details: 50 mg/kg p.o. once daily, pretreatment for 3 days, n = 6
Excerpt: The acetic-acid induced colitis is a model of IBD with a similarity of the inflammatory mediators to that of acute human intestinal inflammation.
Procedure: In this model, initial injury was an epithelial necrosis and edema that variably extended into the lamina propria, submucosa, or external muscle layers, depending of the concentrations and length of exposure to acetic acid. […] Rats were fasted for 24 hrs, anesthetized and a cannula that has 3 mm diameter was inserted into the anus to the depth of 8 cm for instilling 2 ml of 3% acetic acid into the colon for 30 s. After 24 hrs, animals were sacrificed by cervical dislocation, the colon was isolated and the parameters of colitis were measured. […] The reversal of acetic acid induced conditions such as increased colon weight and colon weight to length ratio, which indicated beneficial effects of test drugs on colitis. These effects were further confirmed by decrease in macroscopic lesion score and myeloperoxidase activity in colon tissues.

Naproxen induced ulcers = Naproxen induced ulcers in rats, prophylactic; assay type: in vivo, Male Wistar rats; details: then Naproxen 30 mg/kg p.o., n = 6
Excerpt: Gastric lesions induced by NSAIDS drugs such as Naproxen can aggravate inflammatory reactions in the GI tract.

histamine induced ulcers = assay: Histamine (stress) induced ulcers in rats, prophylactic; assay type: in vivo, Male Wistar rats; details: then Histamine 300 mg/kg i.p., n = 6
Excerpt: Stress induced gastric lesion is a condition that can cause or aggravate inflammatory reactions in the GI tract.

[4] = tested on: inflammatory bowel disease; assay: Prospective study in patients with IBD, patient reported outcome; assay type: in vivo, Humans; parameters: key to Bleeding, Patient Recorded Outcome / Frequent trips to the bathroom, Patient Recorded Outcome / Dependence on medication diarrhea and pain, Patient Recorded Outcome / Abdominal pain, Patient Recorded Outcome / Diarrhea, Patient Recorded Outcome: 0—Absence; 1—Mild; 2—Moderate; 3—Severe; details: 300 mg twice daily for 6 months; for Abdominal pain, Patient Recorded Outcome / Bleeding, Patient Recorded Outcome / Dependence on medication diarrhea and pain, Patient Recorded Outcome / Diarrhea, Patient Recorded Outcome / Frequent trips to the bathroom, Patient Recorded Outcome: IBD
Experimental: A prospective study to assess the efficacy of the test drug in patients with IBD was conducted.
Thereafter, the efficacy of the test drug was analyzed on the basis of patient reported outcome taken at the beginning and end of the study period. Observations: It was observed that all patients were experiencing relief from IBD related symptoms such as abdominal pain, diarrhea, rectal bleeding, fever, nausea and vomiting. It was further observed that there was significant improvement in bowel control which was seen from reduced frequency of visits to restrooms, dependence on diarrhoea medication and pain associated with bowel movement.

[5] = TNBS induced IBD in rats, 50 mg/kg p.o. once daily, 10 days of treatment, n = 6
[6] = colon, TNBS induced IBD in rats, 50 mg/kg p.o. once daily, 10 days of treatment, n = 6
[7] = rats pretreated with 30 mg/kg p.o.
[8] = rats pretreated with 60 mg/kg p.o.
[9] = rats pretreated with 120 mg/kg p.o.
[10] = After Treatment, 300 mg twice daily for 15 days

SMILES: C[C@H]1[C@H](C)CC[C@]2(C(=O)OC3O[C@H](CO[C@H]4O[C@H](CO)[C@@H](O[C@@H]5O[C@@H](C)[C@H](O)[C@@H](O)[C@H]5O)[C@H](O)[C@H]4O)[C@@H](O)[C@H](O)[C@H]3O)CC[C@]3(C)C(=CCC4[C@@]5(C)C[C@@H](O)[C@H](O)[C@@](C)(CO)[C@@H]5CC[C@]43C)[C@H]12 (stereo partly drawn) [Test Drug, Asiaticoside]
- drug recovered from fecal matter [1]: about 81.42%
- Colon length (TNBS induced IBD; [5]): 14.14 ± 0.53 mm
- Colon weight (TNBS induced IBD; [5]): 1.71 ± 0.07 g
- Colon width (TNBS induced IBD; [5]): 0.73 ± 0.13 mm
- Body weight (TNBS induced IBD; TNBS induced IBD in rats, Day 0, before treatment, n = 6): 252.67 ± 3.121^ns1
- Body weight (TNBS induced IBD; TNBS induced IBD in rats, Day 11 (10 days of treatment), 50 mg/kg p.o. once daily, n = 6): 293.00 ± 0.84***^
- Body weight (TNBS induced IBD; TNBS induced IBD in rats, Normal (Day −2), before treatment, n = 6): 286.50 ± 3.14^ns1
- rectal bleeding (TNBS induced IBD; TNBS induced IBD model, post treatment after TNBS administration): significantly reduced after 3rd day
- Microscopic score (TNBS induced IBD; [6]): 4.40 ± 0.68
- Myeloperoxidase activity (TNBS induced IBD; [6]): 0.02 ± 0.0003 U/mg
- Area of Ulceration (ethanol induced ulcers; [7]): 159.3 ± 4.846* mm^2
- Area of Ulceration (ethanol induced ulcers; [8]): 137.6 ± 4.069*** mm^2
- Area of Ulceration (ethanol induced ulcers; [9]): 110.4 ± 2.305*** mm^2
- ulcer area ([2]; H. Pylori infected rats with NSAID induced ulcers): dose dependent and time dependent reduction
- eradication of H. Pylori infection (RUT, PCR) ([2]; H. pylori infected rats with Naproxen induced ulcers, 120 mg/kg p.o. twice daily): not effective in H. Pylori eradication
- eradication of H. Pylori infection (RUT, PCR) ([2]; H. pylori infected rats with Naproxen induced ulcers, 240 mg/kg p.o. once daily): not effective in H. Pylori eradication
- antibacterial action on H. Pylori infection ([2]; H. pylori infected rats with Naproxen induced ulcers, 360 mg/kg p.o. once daily): rapid antibacterial action on 3rd week
- eradication of H. Pylori infection (RUT, PCR) ([2]; H. pylori infected rats with Naproxen induced ulcers, 360 mg/kg p.o. once daily, 9 weeks): eradication of H. Pylori infection in 9 weeks
- Bloody stool, Median Value of Patient Reported Outcome (hemorrhoids; [10]): 0
- Difficulty to sit or walk, Median Value of Patient Reported Outcome (hemorrhoids; [10]): 1
- Edema, Median Value of Patient Reported Outcome (hemorrhoids; [10]): 1
- Itching, Median Value of Patient Reported Outcome (hemorrhoids; [10]): 2
- Pain, Median Value of Patient Reported Outcome (hemorrhoids; [10]): 2
- Bloody stool, Median Value of Patient Reported Outcome (hemorrhoids; Before Treatment): 5
- Difficulty to sit or walk, Median Value of Patient Reported Outcome (hemorrhoids; Before Treatment): 5
- Edema, Median Value of Patient Reported Outcome (hemorrhoids; Before Treatment): 3
- Itching, Median Value of Patient Reported Outcome (hemorrhoids; Before Treatment): 5
- Pain, Median Value of Patient Reported Outcome (hemorrhoids; Before Treatment): 5
- relief of rectal bleeding (hemorrhoids; five hemorrhoid patients, 300 mg twice daily): all patients were relieved of rectal bleeding on the 3rd day of treatment
- Colon length [3]: 16.22 ± 0.63 mm
- Colon weight [3]: 1.53 ± 0.10 g
- Colon width [3]: 0.71 ± 0.05 mm
- Microscopic score ([3]; colon): 4.33 ± 0.71
- Myeloperoxidase activity ([3]; colon): 0.02 ± 0.002 U/mg
- Area of Ulceration (Naproxen induced ulcers; [7]): 5.49 ± 0.212^ns mm^2
- Area of Ulceration (Naproxen induced ulcers; [8]): 4.52 ± 0.169**^ mm^2
- Area of Ulceration (Naproxen induced ulcers; [9]): 2.632 ± 0.146***^ mm^2
- Area of Ulceration (histamine induced ulcers; [7]): 9.242 ± 0.415* mm^2
- Area of Ulceration (histamine induced ulcers; [8]): 7.062 ± 0.362*** mm^2
- Area of Ulceration (histamine induced ulcers; [9]): 4.598 ± 0.323*** mm^2
- Abdominal pain, Patient Recorded Outcome ([4]; Patient 1, After): 1
- Bleeding, Patient Recorded Outcome ([4]; Patient 1, After): 0
- Dependence on medication diarrhea and pain, Patient Recorded Outcome ([4]; Patient 1, After): 0
- Diarrhea, Patient Recorded Outcome ([4]; Patient 1, After): 0
- Frequent trips to the bathroom, Patient Recorded Outcome ([4]; Patient 1, After): 0
- Abdominal pain, Patient Recorded Outcome ([4]; Patient 1, Before): 3
- Bleeding, Patient Recorded Outcome ([4]; Patient 1, Before): 3
- Dependence on medication diarrhea and pain, Patient Recorded Outcome ([4]; Patient 1, Before): 3
- Diarrhea, Patient Recorded Outcome ([4]; Patient 1, Before): 3
- Frequent trips to the bathroom, Patient Recorded Outcome ([4]; Patient 1, Before): 3
- Abdominal pain, Patient Recorded Outcome ([4]; Patient 2, After): 0
- Bleeding, Patient Recorded Outcome ([4]; Patient 2, After): 0
- Dependence on medication diarrhea and pain, Patient Recorded Outcome ([4]; Patient 2, After): 0
- Diarrhea, Patient Recorded Outcome ([4]; Patient 2, After): 0
- Frequent trips to the bathroom, Patient Recorded Outcome ([4]; Patient 2, After): 1
- Abdominal pain, Patient Recorded Outcome ([4]; Patient 2, Before): 3
- Bleeding, Patient Recorded Outcome ([4]; Patient 2, Before): 3
- Dependence on medication diarrhea and pain, Patient Recorded Outcome ([4]; Patient 2, Before): 3
- Diarrhea, Patient Recorded Outcome ([4]; Patient 2, Before): 3
- Frequent trips to the bathroom, Patient Recorded Outcome ([4]; Patient 2, Before): 3
- Abdominal pain, Patient Recorded Outcome ([4]; Patient 3, After): 1
- Bleeding, Patient Recorded Outcome ([4]; Patient 3, After): 0
- Dependence on medication diarrhea and pain, Patient Recorded Outcome ([4]; Patient 3, After): 1
- Diarrhea, Patient Recorded Outcome ([4]; Patient 3, After): 2
- Frequent trips to the bathroom, Patient Recorded Outcome ([4]; Patient 3, After): 0
- Abdominal pain, Patient Recorded Outcome ([4]; Patient 3, Before): 3
- Bleeding, Patient Recorded Outcome ([4]; Patient 3, Before): 3
- Dependence on medication diarrhea and pain, Patient Recorded Outcome ([4]; Patient 3, Before): 3
- Diarrhea, Patient Recorded Outcome ([4]; Patient 3, Before): 3
- Frequent trips to the bathroom, Patient Recorded Outcome ([4]; Patient 3, Before): 3
- incidences of joint pain, skin diseases or eye related complications ([4]; three IBD patients): no incidences of joint pain, skin diseases or eye related complications
- tolerability ([4]; three IBD patients): well tolerated
